Assay results from publication PMC8591608, “DNDI-6148: A Novel Benzoxaborole Preclinical Candidate for the Treatment of Visceral Leishmaniasis” (Journal of Medicinal Chemistry, 2021).
Where two headings read alike, the source gives them in different places.

Columns and labels:
L. infantum = L. infantum hamster model of VL; format: in vivo; conditions: for reduction in parasite burden, bone marrow, 10 days / reduction in parasite burden, liver, 10 days / reduction in parasite burden, spleen, 10 days: 25 mg/kg BID p.o. for 10 days
Procedure: L. infantum (MHOM/MA/67/ITMAP263) and L. donovani (MHOM/ET/67/L82) were maintained in the golden (Syrian) hamster (Mesocricetus auratus). Ex vivo amastigotes were collected from the spleen of an infected donor hamster using two centrifugation purification steps: 230g for 10 min, keeping the supernatant layer, and 4100g for 30 min, keeping the pellet. The spleen parasite burden was assessed using the Stauber technique.[25] For in vitro assays, the inoculum was prepared in RPMI-1640 medium, supplemented with 200 mM L-glutamine, 16.5 mM NaHCO3, and 5% inactivated fetal calf serum. For the in vivo model, an infection inoculum containing 2 × 10^7 amastigotes/100 μL was prepared in phosphate-buffered saline (PBS).
Female golden hamsters for the in vivo model of visceral leishmaniasis were purchased from Janvier, France (body weight 80–100 g). This study using laboratory rodents was carried out in strict accordance with all mandatory guidelines (EU directives, including the Revised Directive 2010/63/EU on the protection of Animals used for Scientific Purposes that came into force on 01/01/2013, and the declaration of Helsinki in its latest version) and was approved by the ethical committee of the University of Antwerp, Belgium (UA-ECD 2011-74). Female golden hamsters for the pharmacokinetic study were purchased from Vital River, Beijing, China. This study was conducted following institutional review and in accordance with institutional and national guidelines at WuXi AppTec (the Institutional Animal Care and Use Committee (IACUC)). Balb/c mice for the in vivo model of visceral leishmaniasis (LSHTM) were purchased from Charles River, U.K., and related studies were conducted under license PPL 70/8427 from the U.K. Home Office.
Female golden hamsters were randomly allocated to experimental groups of six animals each, based on body weight. At the start of the experiment (Day 0), each animal was infected with L. infantum or L. donovani inoculum, delivered by intracardial injection. Six hamsters were assigned to the vehicle-treated, infected control group. Six hamsters were assigned per group (1 group/compound) for the evaluation of compound and miltefosine. […] At Day 35 (10 days after the final oral dose), all animals were euthanized and autopsies were conducted. The study evaluated the following parameters. • 1. Adverse effects: all animals were observed daily for the occurrence/presence of adverse effects. • 2. Body weight: all animals were weighed twice per week to monitor general health. • 3. Parasite burden: amastigote burdens in each target organ (liver, spleen, and bone marrow) were determined at Day 35. The organs of individual animals were weighed (except for bone marrow). Impression smears were stained with Giemsa for microscopic examination of the total amastigote burden, defined as the mean number of amastigotes per cell multiplied by the number of cells counted (minimum 500 nuclei); the results were expressed as a percentage reduction in amastigote burden compared to vehicle-treated, infected control animals.

[1] = Hamster oral pharmacokinetic study; format: in vivo, golden Syrian hamsters; conditions: female, golden Syrian, plasma, single p.o. dose 50 mg/kg, read-out: AUC0–24 after single p.o. dose of 50 mg/kg
Procedure: […] The K2-EDTA anticoagulant was added to blood samples collected from 0.25 to 36 h, which were processed to plasma and stabilized with phosphoric acid (1% final) before analysis by LC-MS/MS. PK parameters were calculated using WinNonlin software (version 6.3).

[2] = Plasma-protein binding, human; format: in vitro ADME; conditions: pH 7.4
Procedure: Tests were conducted by WuXi AppTec, Co., China, using the equilibrium dialysis method and a 96-well plate format. The test compound (at 2 μM, in triplicate) in solution in plasma (Balb/c mouse, golden (Syrian) hamster, Sprague-Dawley rat, Beagle dog or human) was dialyzed against 100 mM phosphate-buffered saline (pH 7.4) on a rotating plate incubated for 6 h at 37 °C. Following the precipitation of protein with acetonitrile or acetonitrile/methanol containing both 1% phosphoric acid, the amount of compound present in each compartment was quantified by LC-MS/MS.

[3] = In vivo pharmacokinetics in dog; set-up: species or system male Beagle dogs; conditions: for MRT inf: read-out: MRT0-inf; for MRT last: read-out: MRT0-last
Procedure: DNDI-6148 was administrated intravenously at 1 mg/kg and orally at 5 mg/kg to male Beagle dogs. The formulation for the i.v. leg was 2% ethanol, 1.0 mol equiv NaOH, dextrose (5% solution) filtered, and adjusted to pH 7, and for the p.o. leg, the formulation was 2% ethanol, 1.0 mol equiv NaOH, and dextrose (5% solution). The K2-EDTA anticoagulant was added to blood samples collected at predose, 0.033 (i.v. only), 0.083 (p.o. only), 0.25, 0.5, 1, 3, 6, 9, and 24 h, and were stabilized with phosphoric acid (1% final) before analysis by LC-MS/MS. PK parameters were calculated using WinNonlin software (version 6.3).

[4] = Liver microsome stability, human; format: in vitro ADME; conditions: for microsomal CLint at 1 μM: human liver microsomes, pH 7.4, Table 5, read-out: HLM Clint
Method in brief: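 Compounds at 1 μM incubated at 37 °C with liver microsomes (Balb/c mouse, golden Syrian hamster, Beagle dog, human) plus NADPH regenerating system in 100 mM phosphate buffer pH 7.4, 0.4 or 0.8 mg/mL protein. Samples taken from 0 up to 60, 90 or 120 min, quenched in cold methanol and analysed by LC-MS/MS.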

[5] = male, Beagle, plasma, IV 1.0 mg/kg, mean
[6] = male, Beagle, plasma, PO 5 mg/kg, mean
[7] = male, Beagle, plasma, iv, i.v. 1 mg/kg

Which “reduction in parasite burden, bone marrow, 5 days” value (from here on “reduction … bone marrow, 5 days”) (L. infantum; 25 mg/kg BID p.o. for 5 days) does the source give for `Cc1c(C(=O)Nc2ccc3c(c2)B(O)OC3)nnn1-c1ccccn1` [Compound 23, N-(1-Hydroxy-1,3-dihydrobenzo[c][1,2]oxaborol-6-yl)-5-methyl-1-(pyridin-2-yl)-1H-1,2,3-triazole-4-carboxamide] here?
Its value is 93.6%.

And the “reduction in parasite burden, liver, 5 days” value (“reduction … liver, 5 days” for short) (L. infantum; 25 mg/kg BID p.o. for 5 days)?
The value was 98.3%.

What about the “reduction in parasite burden, spleen, 5 days” value (shortened to “reduction … spleen, 5 days”) (L. infantum; 25 mg/kg BID p.o. for 5 days) of the same compound?
Its value is 98.2%.

What about the “reduction in parasite burden, bone marrow, 10 days” value (L. infantum) of the same compound?
The value was 99.4%.

And the “reduction in parasite burden, liver, 10 days” value (L. infantum)?
The value was 100%.

What about the “reduction in parasite burden, spleen, 10 days” value (L. infantum) of the same compound?
Its value is 99.9%.

What about the “reduction … bone marrow, 5 days” value (L. infantum; 50 mg/kg BID p.o. for 5 days) of the same compound?
The value was 99.0%.

And the “reduction … liver, 5 days” value (L. infantum; 50 mg/kg BID p.o. for 5 days)?
Its value is 99.8%.

And the “reduction … spleen, 5 days” value (L. infantum; 50 mg/kg BID p.o. for 5 days)?
The value was 99.9%.

What about the AUC(0-t) [1] of the same compound?
Its AUC(0-t) is 120000 ng·h/mL.

And the fraction unbound at 6 h, 2 µM [2]?
Its fraction unbound at 6 h, 2 µM is 0.08.

And the AUC0-inf/AUC0-last ([3]; IV 1.0 mg/kg, mean)?
The AUC0-inf/AUC0-last was 102%.

What about the Tlast ([3]; IV 1.0 mg/kg, mean) of the same compound?
The Tlast was 9.00 h.

What about the AUC0-inf/AUC0-last ([3]; PO 5 mg/kg, mean) of the same compound?
The AUC0-inf/AUC0-last was 103%.

And the Tlast ([3]; PO 5 mg/kg, mean)?
Its Tlast is 9.00 h.

What about the concentration at 0.033 h ([3]; male, Beagle, plasma, IV 1.0 mg/kg, 0.033 h, mean) of the same compound?
Its concentration at 0.033 h is 1560 ng/mL.

And the concentration at 5 min [3, 5]?
The concentration at 5 min was 1120 ng/mL.

What about the concentration at 0.25 h [3, 5] of the same compound?
Its concentration at 0.25 h is 644 ng/mL.

What about the concentration at 0.5 h [3, 5] of the same compound?
Its concentration at 0.5 h is 534 ng/mL.

And the concentration at 1 h [3, 5]?
The concentration at 1 h was 373 ng/mL.

What about the concentration at 3 h [3, 5] of the same compound?
Its concentration at 3 h is 97.7 ng/mL.

And the concentration at 6 h [3, 5]?
The concentration at 6 h was 23 ng/mL.

What about the concentration at 9 h [3, 5] of the same compound?
The concentration at 9 h was 8.8 ng/mL.

And the concentration at 24 h [3, 5]?
Its concentration at 24 h is 0.9 ng/mL.

And the AUC(0-inf) [3, 5]?
The AUC(0-inf) was 1270 ng·h/mL.

What about the AUC(0-t) [3, 5] of the same compound?
Its AUC(0-t) is 1240 ng·h/mL.

What about the C0 [3, 5] of the same compound?
The C0 was 1930 ng/mL.

What about the half-life [3, 5] of the same compound?
The half-life was 89.4 min.

What about the MRT inf [3, 5] of the same compound?
The MRT inf was 1.66 h.

And the MRT last [3, 5]?
The MRT last was 1.51 h.

What about the Vd ([3]; male, Beagle, plasma, IV 1.0 mg/kg, mean, read-out: Vdss) of the same compound?
Its Vd is 1.31 L/kg.

What about the concentration at 5 min [3, 6] of the same compound?
Its concentration at 5 min is 266 ng/mL.

What about the concentration at 0.25 h [3, 6] of the same compound?
Its concentration at 0.25 h is 1130 ng/mL.

What about the concentration at 0.5 h [3, 6] of the same compound?
Its concentration at 0.5 h is 881 ng/mL.

And the concentration at 1 h [3, 6]?
Its concentration at 1 h is 814 ng/mL.

What about the concentration at 3 h [3, 6] of the same compound?
The concentration at 3 h was 357 ng/mL.

And the concentration at 6 h [3, 6]?
Its concentration at 6 h is 54.8 ng/mL.

What about the concentration at 9 h [3, 6] of the same compound?
Its concentration at 9 h is 25.5 ng/mL.

What about the concentration at 24 h [3, 6] of the same compound?
Its concentration at 24 h is 0.9 ng/mL.

And the AUC(0-inf) [3, 6]?
The AUC(0-inf) was 2530 ng·h/mL.

What about the AUC(0-t) [3, 6] of the same compound?
Its AUC(0-t) is 2470 ng·h/mL.

And the Cmax [3, 6]?
The Cmax was 1220 ng/mL.

What about the Tmax [3, 6] of the same compound?
The Tmax was 37.8 min.

What about the half-life [3, 6] of the same compound?
Its half-life is 87.6 min.

And the MRT inf [3, 6]?
Its MRT inf is 2.42 h.

And the MRT last [3, 6]?
Its MRT last is 2.19 h.

And the Vd at 24 h [3, 7]?
The Vd at 24 h was 1.3 L/kg.

What about the clearance [3, 7] of the same compound?
Its clearance is 13.7 mL/min/kg.

And the half-life at 24 h [3, 7]?
Its half-life at 24 h is 90 min.

And the bioavailability at 24 h ([3]; male, Beagle, plasma, po, p.o. 5 mg/kg)?
Its bioavailability at 24 h is 39%.

And the “microsome Clint” value ([4]; Table 10)?
Its value is under 11.9 μL/min/mg protein.

What about the microsomal CLint at 1 μM [4] of the same compound?
The microsomal CLint at 1 μM was under 11.9 µL/min/mg.

Which “reduction … bone marrow, 5 days” value (L. infantum; 25 mg/kg BID p.o. for 5 days) does the source give for `Cc1c(-c2ccccn2)coc1C(=O)Nc1ccc2c(c1)B(O)OC2` [Compound 28, N-(1-Hydroxy-1,3-dihydrobenzo[c][1,2]oxaborol-6-yl)-3-methyl-4-(pyridin-2-yl)furan-2-carboxamide] here?
The value was 95.7%.

What about the “reduction … liver, 5 days” value (L. infantum; 25 mg/kg BID p.o. for 5 days) of the same compound?
The value was 98.9%.

And the “reduction … spleen, 5 days” value (L. infantum; 25 mg/kg BID p.o. for 5 days)?
Its value is 97.8%.

What about the “reduction in parasite burden, bone marrow, 10 days” value (L. infantum) of the same compound?
Its value is 84%.

And the “reduction in parasite burden, liver, 10 days” value (L. infantum)?
The value was 99.4%.

What about the “reduction in parasite burden, spleen, 10 days” value (L. infantum) of the same compound?
Its value is 96.9%.

And the “reduction … bone marrow, 5 days” value (L. infantum; 50 mg/kg BID p.o. for 5 days)?
The value was 99.1%.

What about the “reduction … liver, 5 days” value (L. infantum; 50 mg/kg BID p.o. for 5 days) of the same compound?
Its value is 99.9%.

What about the “reduction … spleen, 5 days” value (L. infantum; 50 mg/kg BID p.o. for 5 days) of the same compound?
The value was 99.9%.

What about the AUC(0-t) [1] of the same compound?
The AUC(0-t) was 21000 ng·h/mL.

What about the microsomal CLint at 1 μM [4] of the same compound?
The microsomal CLint at 1 μM was under 11.9 µL/min/mg.
